Substitutions are numbered along the chain they refer to. Where two headings read alike, the source gives them in different places.
Key:
Type in all cases: cell-based
rat P2X2 K308A = target: T1, rat P2X2 K308A (Rattus norvegicus, UniProt P49653, K308A); test: ATP activation of the K308A mutant channel; conditions: K308A mutation, very high concentrations of ATP (>3 mM)
T1 sequence (P49653 1-472 K308A): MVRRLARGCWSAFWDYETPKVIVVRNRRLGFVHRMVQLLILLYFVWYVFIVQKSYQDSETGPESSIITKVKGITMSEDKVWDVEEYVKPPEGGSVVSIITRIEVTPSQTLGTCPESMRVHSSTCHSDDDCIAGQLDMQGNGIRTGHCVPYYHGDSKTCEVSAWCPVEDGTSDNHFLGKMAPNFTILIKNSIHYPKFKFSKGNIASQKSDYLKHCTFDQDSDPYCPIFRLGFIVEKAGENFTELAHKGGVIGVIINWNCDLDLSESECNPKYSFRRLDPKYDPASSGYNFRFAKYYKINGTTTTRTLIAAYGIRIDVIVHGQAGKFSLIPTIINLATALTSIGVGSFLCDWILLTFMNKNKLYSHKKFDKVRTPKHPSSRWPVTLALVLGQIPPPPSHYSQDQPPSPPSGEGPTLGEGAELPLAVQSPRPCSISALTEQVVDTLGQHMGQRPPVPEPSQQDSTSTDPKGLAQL

rat P2X2 D315A = target: T2, rat P2X2 D315A (Rattus norvegicus, UniProt P49653, D315A); test: ATP dose–response, two-electrode voltage clamp in Xenopus oocytes, D315A; conditions: at −160 mV
T2 sequence (P49653 1-472 D315A): T1 sequence (P49653 1-472 K308A) with A308K, D315A

[1] = target: T3, rat P2X2 tandem trimer WT–K308A&K69A–WT (Rattus norvegicus, UniProt P49653, K308A/K69A); test: Hetero-assembly test, activation by ATP, WT–K308A&K69A–WT; conditions: 1 mM [ATP], days 1 and 2 after RNA injection
T3 sequence (P49653 1-472) 1: T1 sequence (P49653 1-472 K308A) with A308K
T3 sequence (P49653 1-472 K69A/K308A): T1 sequence (P49653 1-472 K308A) with K69A
T3 sequence (P49653 1-472) 3: T1 sequence (P49653 1-472 K308A) with A308K

[2] = target: T4, rat P2X2 tandem trimer WT–WT–K308A&K69A (Rattus norvegicus, UniProt P49653, K308A/K69A); test: Hetero-assembly test, activation by ATP, WT–WT–K308A&K69A; conditions: 1 mM [ATP], days 1 and 2 after RNA injection
T4 sequence (P49653 1-472) 1: T1 sequence (P49653 1-472 K308A) with A308K
T4 sequence (P49653 1-472) 2: T1 sequence (P49653 1-472 K308A) with A308K
T4 sequence (P49653 1-472 K69A/K308A): T1 sequence (P49653 1-472 K308A) with K69A

[3] = target: T5, rat P2X2 tandem trimer WT–WT–WT (Rattus norvegicus, UniProt P49653); test: ATP dose–response, two-electrode voltage clamp in Xenopus oocytes, WT–WT–WT
T5 sequence (P49653 1-472) 1: T1 sequence (P49653 1-472 K308A) with A308K
T5 sequence (P49653 1-472) 2: T1 sequence (P49653 1-472 K308A) with A308K
T5 sequence (P49653 1-472) 3: T1 sequence (P49653 1-472 K308A) with A308K

[4] = target: T6, rat P2X2 tandem trimer WT–T339S–T339S (Rattus norvegicus, UniProt P49653, T339S)
T6 sequence (P49653 1-472): T1 sequence (P49653 1-472 K308A) with A308K
T6 sequence (P49653 1-472 T339S) 2: T1 sequence (P49653 1-472 K308A) with A308K, T339S
T6 sequence (P49653 1-472 T339S) 3: T1 sequence (P49653 1-472 K308A) with A308K, T339S

[5] = target: T7, rat P2X2 tandem trimer WT–WT–K308A (Rattus norvegicus, UniProt P49653, K308A); test: ATP dose–response, two-electrode voltage clamp in Xenopus oocytes, WT–WT–K308A
T7 sequence (P49653 1-472) 1: T1 sequence (P49653 1-472 K308A) with A308K
T7 sequence (P49653 1-472) 2: T1 sequence (P49653 1-472 K308A) with A308K
T7 sequence (P49653 1-472 K308A): T1 sequence (P49653 1-472 K308A)

[6] = target: T8, rat P2X2 tandem trimer WT–K308A–WT (Rattus norvegicus, UniProt P49653, K308A); test: ATP dose–response, two-electrode voltage clamp in Xenopus oocytes, WT–K308A–WT
T8 sequence (P49653 1-472) 1: T1 sequence (P49653 1-472 K308A) with A308K
T8 sequence (P49653 1-472 K308A): T1 sequence (P49653 1-472 K308A)
T8 sequence (P49653 1-472) 3: T1 sequence (P49653 1-472 K308A) with A308K

[7] = target: T9, rat P2X2 tandem trimer D315A–D315A–D315A (Rattus norvegicus, UniProt P49653, D315A); conditions: at −160 mV
T9 sequence (P49653 1-472 D315A) 1: T1 sequence (P49653 1-472 K308A) with A308K, D315A
T9 sequence (P49653 1-472 D315A) 2: T1 sequence (P49653 1-472 K308A) with A308K, D315A
T9 sequence (P49653 1-472 D315A) 3: T1 sequence (P49653 1-472 K308A) with A308K, D315A

[8] = target: T10, rat P2X2 tandem trimer D315A–D315A–WT (Rattus norvegicus, UniProt P49653, D315A); conditions: at −160 mV
T10 sequence (P49653 1-472 D315A) 1: T1 sequence (P49653 1-472 K308A) with A308K, D315A
T10 sequence (P49653 1-472 D315A) 2: T1 sequence (P49653 1-472 K308A) with A308K, D315A
T10 sequence (P49653 1-472): T1 sequence (P49653 1-472 K308A) with A308K

[9] = target: T11, rat P2X2 tandem trimer K308A&K69A–WT–WT (Rattus norvegicus, UniProt P49653, K308A/K69A); test: Hetero-assembly test, activation by ATP, K308A&K69A–WT–WT; conditions: 1 mM [ATP], days 1 and 2 after RNA injection
T11 sequence (P49653 1-472 K69A/K308A): T1 sequence (P49653 1-472 K308A) with K69A
T11 sequence (P49653 1-472) 2: T1 sequence (P49653 1-472 K308A) with A308K
T11 sequence (P49653 1-472) 3: T1 sequence (P49653 1-472 K308A) with A308K

rat P2X2 WT = target: T12, rat P2X2 WT (Rattus norvegicus, UniProt P49653); test: ATP dose–response, two-electrode voltage clamp in Xenopus oocytes, WT
T12 sequence (P49653 1-472): T1 sequence (P49653 1-472 K308A) with A308K

[10] = target: T13, rat P2X2 tandem trimer K308A–WT–WT (Rattus norvegicus, UniProt P49653, K308A); test: ATP dose–response, two-electrode voltage clamp in Xenopus oocytes, K308A–WT–WT
T13 sequence (P49653 1-472 K308A): T1 sequence (P49653 1-472 K308A)
T13 sequence (P49653 1-472) 2: T1 sequence (P49653 1-472 K308A) with A308K
T13 sequence (P49653 1-472) 3: T1 sequence (P49653 1-472 K308A) with A308K

[11] = target: T14, rat P2X2 tandem trimer WT–T339S–WT (Rattus norvegicus, UniProt P49653, T339S); test: ATP dose–response, two-electrode voltage clamp in Xenopus oocytes, WT–T339S–WT
T14 sequence (P49653 1-472) 1: T1 sequence (P49653 1-472 K308A) with A308K
T14 sequence (P49653 1-472 T339S): T1 sequence (P49653 1-472 K308A) with A308K, T339S
T14 sequence (P49653 1-472) 3: T1 sequence (P49653 1-472 K308A) with A308K

[12] = target: T15, rat P2X2 tandem trimer D315A–WT–WT (Rattus norvegicus, UniProt P49653, D315A); test: ATP dose–response, two-electrode voltage clamp in Xenopus oocytes, D315A–WT–WT
T15 sequence (P49653 1-472 D315A): T1 sequence (P49653 1-472 K308A) with A308K, D315A
T15 sequence (P49653 1-472) 2: T1 sequence (P49653 1-472 K308A) with A308K
T15 sequence (P49653 1-472) 3: T1 sequence (P49653 1-472 K308A) with A308K

[13] = target: T16, rat P2X2 tandem trimer T339S–T339S–T339S (Rattus norvegicus, UniProt P49653, T339S)
T16 sequence (P49653 1-472 T339S) 1: T1 sequence (P49653 1-472 K308A) with A308K, T339S
T16 sequence (P49653 1-472 T339S) 2: T1 sequence (P49653 1-472 K308A) with A308K, T339S
T16 sequence (P49653 1-472 T339S) 3: T1 sequence (P49653 1-472 K308A) with A308K, T339S

Nc1ncnc2c1ncn2[C@@H]1O[C@H](COP(=O)(O)OP(=O)(O)OP(=O)(O)O)[C@@H](O)[C@H]1O [ATP, adenosine triphosphate]
channel response to ATP (rat P2X2 K308A): unresponsive | EC50 (rat P2X2 D315A; EC50 (1), first phase of biphasic dose–response): 1.2 ± 0.6 µM | EC50 (rat P2X2 D315A; EC50 (2), second phase of biphasic dose–response): 89.1 ± 1.48 µM | Hill (1) (rat P2X2 D315A; first phase): 2.4 ± 0.7 | activation in response to ATP [1]: did not show any prominent activation | activation in response to ATP [2]: did not show any prominent activation | EC50 [3]: 19.1 ± 2 µM | EC50 [4]: 6 ± 0.4 µM | Hill ([4]; WT–T339S–T339S, at −160 mV): 1.5 ± 0.2 | EC50 [5]: 33.3 ± 1.65 µM | Hill coefficient ([5]; WT–WT–K308A, at −160 mV, mean ± SEM): 1.6 ± 1.4 | EC50 [6]: 22.9 ± 1.8 µM | EC50 ([7]; EC50 (1), first phase): 1.5 ± 0.8 µM | EC50 ([7]; EC50 (2), second phase): 130 ± 5 µM | Hill (1) ([7]; first phase): 3.7 ± 0.6 | EC50 ([8]; EC50 (1), first phase): 3.15 ± 0.9 µM | EC50 ([8]; EC50 (2), second phase): 794 ± 12 µM | activation in response to ATP [9]: did not show any prominent activation | EC50 (rat P2X2 WT): 14.5 ± 1.2 µM | Hill coefficient (rat P2X2 WT; WT, at −160 mV, Xenopus oocytes, mean ± SEM): 1.7 ± 0.2 | EC50 [10]: 42.3 ± 2.2 µM | Hill coefficient ([10]; K308A–WT–WT, at −160 mV, mean ± SEM): 1.7 ± 0.18 | EC50 [11]: 12.2 ± 1.2 µM | Hill ([11]; WT–T339S–WT, at −160 mV): 1.5 ± 0.9 | EC50 [12]: 6.02 ± 1.1 µM | Hill ([12]; D315A–WT–WT, at −160 mV): 1.4 ± 0.1 | EC50 [13]: 2400 ± 400 nM | Hill ([13]; T339S–T339S–T339S, at −160 mV): 1.5 ± 0.3

— article PMC4035740 (The Journal of General Physiology, 2014)
